Assay results taken from patent publication US9529005B2, “Modulating bacterial MAM polypeptides in pathogenic disease” (priority 2011, dated 2016).
Converted amounts (≈) assume the structure as drawn. Read-outs that look alike come from different tables or passages of the source.

Tests used:
Experiment in all cases: Antimicrobial susceptibility testing (MIC), BD Phoenix Automated Microbiology System; as to interpretation of the result: key: R, resistant; I, intermediate; S, susceptible; R*: *As a rule, when ESBL is detected, an interpretation of susceptible or intermediate for penicillins, cephalosporins and aztreonam is reported as resistant
Format in all cases: cell-based
Klebsiella ssp. = details: for MIC: Klebsiella
Text: (§1) The inventors performed antimicrobial susceptibility testing (AST) by determining the minimal inhibiting concentration (MIC) of a panel of antimicrobials on all twenty bacterial isolates using the BD Phoenix Automated Microbiology System (Table 3). Antimicrobial panels included several drugs from each of the four most commonly used classes of antimicrobials, aminoglycosides, β-lactams, carbapenems and fluoroquinolones. The panels also included antimicrobials from other classes, such as trimethoprim/sulfamethoxazole, but resistance to these was not considered in the classification of isolates as multidrug-resistant.

Pseudomonas aeruginosa = details: for MIC: Pseudomonas aeruginosa
Text: as §1

Escherichia coli = details: for MIC: Escherichia coli
Text: as §1

Acinetobacter baumannii = details: for MIC: Acinetobacter baumannii
Text: as §1

[1] = read-out: minimal inhibiting concentration, Klebsiella ssp. isolate 2
[2] = read-out: minimal inhibiting concentration, Klebsiella ssp. isolate 3
[3] = read-out: minimal inhibiting concentration, Klebsiella ssp. isolate 4
[4] = Pseudomonas aeruginosa isolate 1
[5] = Pseudomonas aeruginosa isolate 2
[6] = Pseudomonas aeruginosa isolate 3
[7] = Pseudomonas aeruginosa isolate 4
[8] = Pseudomonas aeruginosa isolate 5
[9] = read-out: minimal inhibiting concentration, Pseudomonas aeruginosa isolate 1
[10] = read-out: minimal inhibiting concentration, Pseudomonas aeruginosa isolate 2
[11] = read-out: minimal inhibiting concentration, Pseudomonas aeruginosa isolate 3
[12] = read-out: minimal inhibiting concentration, Pseudomonas aeruginosa isolate 4
[13] = read-out: minimal inhibiting concentration, Pseudomonas aeruginosa isolate 5
[14] = read-out: minimal inhibiting concentration, Escherichia coli isolate 1
[15] = read-out: minimal inhibiting concentration, Escherichia coli isolate 2
[16] = read-out: minimal inhibiting concentration, Escherichia coli isolate 3
[17] = read-out: minimal inhibiting concentration, Escherichia coli isolate 4
[18] = read-out: minimal inhibiting concentration, Escherichia coli isolate 5

Row | Compound | interpretation of the result (Klebsiella ssp.; Klebsiella ssp. isolate 2) | interpretation of the result (Klebsiella ssp.; Klebsiella ssp. isolate 3) | interpretation of the result (Klebsiella ssp.; Klebsiella ssp. isolate 4) | interpretation of the result (Pseudomonas aeruginosa; [4]) | interpretation of the result (Pseudomonas aeruginosa; [5]) | interpretation of the result (Pseudomonas aeruginosa; [6]) | interpretation of the result (Pseudomonas aeruginosa; [7]) | interpretation of the result (Pseudomonas aeruginosa; [8]) | MIC (Pseudomonas aeruginosa; [9]) [µg/mL] | MIC (Pseudomonas aeruginosa; [10]) [µg/mL] | MIC (Pseudomonas aeruginosa; [11]) [µg/mL] | MIC (Pseudomonas aeruginosa; [12]) [µg/mL] | MIC (Pseudomonas aeruginosa; [13]) [µg/mL] | interpretation of the result (Escherichia coli; Escherichia coli isolate 1) | interpretation of the result (Escherichia coli; Escherichia coli isolate 2) | interpretation of the result (Escherichia coli; Escherichia coli isolate 3) | interpretation of the result (Escherichia coli; Escherichia coli isolate 4) | interpretation of the result (Escherichia coli; Escherichia coli isolate 5) | MIC (Escherichia coli; [14]) [µg/mL] | MIC (Escherichia coli; [15]) [µg/mL] | also measured
1 | Cc1nnc(SCC2=C(C(=O)O)N3C(=O)[C@@H](NC(=O)Cn4cnnn4)[C@H]3SC2)s1 [Cefa., Cefazolin] | R | R | R | R | R | R | R | R | > 16 | > 16 | > 16 | > 16 | > 16 | R | R | R | R | R | > 16 | > 16 | MIC (Klebsiella ssp.; [1]): > 16 µg/mL; MIC (Klebsiella ssp.; [2]): > 16 µg/mL; MIC (Klebsiella ssp.; [3]): > 16 µg/mL; MIC (Escherichia coli; [16]): > 16 µg/mL; MIC (Escherichia coli; [17]): > 16 µg/mL; MIC (Escherichia coli; [18]): > 16 µg/mL
2 | CO/N=C(\C(=O)N[C@@H]1C(=O)N2C(C(=O)O)=C(COC(N)=O)CS[C@H]12)c1ccco1 [Cefu., Cefuroxime] |  |  |  | R | R | R | R | R | > 16 | > 16 | > 16 | > 16 | > 16 | R | R | R | R | R | > 16 | > 16 | interpretation of the result (Acinetobacter baumannii; Acinetobacter baumannii isolate 1): R; interpretation of the result (Acinetobacter baumannii; Acinetobacter baumannii isolate 2): R; interpretation of the result (Acinetobacter baumannii; Acinetobacter baumannii isolate 3): R; interpretation of the result (Acinetobacter baumannii; Acinetobacter baumannii isolate 4): R; interpretation of the result (Acinetobacter baumannii; Acinetobacter baumannii isolate 5): R; MIC (Acinetobacter baumannii; read-out: minimal inhibiting concentration, Acinetobacter baumannii isolate 1): > 16 µg/mL; MIC (Acinetobacter baumannii; read-out: minimal inhibiting concentration, Acinetobacter baumannii isolate 2): > 16 µg/mL; MIC (Acinetobacter baumannii; read-out: minimal inhibiting concentration, Acinetobacter baumannii isolate 3): > 16 µg/mL; MIC (Acinetobacter baumannii; read-out: minimal inhibiting concentration, Acinetobacter baumannii isolate 4): > 16 µg/mL; MIC (Acinetobacter baumannii; read-out: minimal inhibiting concentration, Acinetobacter baumannii isolate 5): > 16 µg/mL; MIC (Escherichia coli; [16]): > 16 µg/mL; MIC (Escherichia coli; [17]): > 16 µg/mL; MIC (Escherichia coli; [18]): > 16 µg/mL
3 | CO/N=C(\C(=O)N[C@@H]1C(=O)N2C(C(=O)O)=C(CSc3nc(=O)c(=O)[nH]n3C)CS[C@H]12)c1csc(N)n1 [Co., Ceftriaxone] | R | R | R | R | R | R | R | R | > 32 | > 32 | > 32 | > 32 | > 32 | R | R | R | R | R | > 32 | > 32 | MIC (Klebsiella ssp.; [1]): > 32 µg/mL; MIC (Klebsiella ssp.; [2]): 16 µg/mL (≈ 28.9 µM); MIC (Klebsiella ssp.; [3]): > 32 µg/mL; MIC (Escherichia coli; [16]): > 32 µg/mL; MIC (Escherichia coli; [17]): > 32 µg/mL; MIC (Escherichia coli; [18]): > 32 µg/mL
4 | CO[C@@]1(NC(=O)Cc2cccs2)C(=O)N2C(C(=O)O)=C(COC(N)=O)CS[C@@H]21 [Cx., Cefoxitin] | S | R | S | R | R | R | R | R | > 16 | > 16 | > 16 | > 16 | > 16 | S | S | S | R | S | 8 (≈ 18.7 µM) | ≤ 4 | MIC (Klebsiella ssp.; [1]): ≤ 4 µg/mL; MIC (Klebsiella ssp.; [2]): > 16 µg/mL; MIC (Klebsiella ssp.; [3]): 8 µg/mL (≈ 18.7 µM); MIC (Escherichia coli; [16]): 8 µg/mL (≈ 18.7 µM); MIC (Escherichia coli; [17]): > 16 µg/mL; MIC (Escherichia coli; [18]): 8 µg/mL (≈ 18.7 µM)
5 | Piperacillin-Tazobactam [PipT.] | I | S | R | R | R | R | S | R |  |  |  |  |  | I | S | I | I | I |  |  | minimal inhibiting concentration (Klebsiella ssp.; Klebsiella ssp. isolate 2): 32/4; minimal inhibiting concentration (Klebsiella ssp.; Klebsiella ssp. isolate 3): 16/4; minimal inhibiting concentration (Klebsiella ssp.; Klebsiella ssp. isolate 4): 64/4; minimal inhibiting concentration (Pseudomonas aeruginosa; [4]): 64/4; minimal inhibiting concentration (Pseudomonas aeruginosa; [5]): 64/4; minimal inhibiting concentration (Pseudomonas aeruginosa; [6]): 64/4; minimal inhibiting concentration (Pseudomonas aeruginosa; [7]): 32/4; minimal inhibiting concentration (Pseudomonas aeruginosa; [8]): 64/4; minimal inhibiting concentration (Escherichia coli; Escherichia coli isolate 1): 32/4; minimal inhibiting concentration (Escherichia coli; Escherichia coli isolate 2): 2/4; minimal inhibiting concentration (Escherichia coli; Escherichia coli isolate 3): 32/4; minimal inhibiting concentration (Escherichia coli; Escherichia coli isolate 4): 16/4; minimal inhibiting concentration (Escherichia coli; Escherichia coli isolate 5): 32/4
